Data from BindingDB's records for doi:10.7270/Q2XP73JZ (The Scripps Research Institute Molecular Screening Center, 2013).
pIC50: −log10 of the molar value.

Biological target: T1, Methionine--tRNA ligase (Trypanosoma brucei brucei (strain 927/4 GUTat10.1), UniProt Q38C91)
T1 sequence (Q38C91 whole entry): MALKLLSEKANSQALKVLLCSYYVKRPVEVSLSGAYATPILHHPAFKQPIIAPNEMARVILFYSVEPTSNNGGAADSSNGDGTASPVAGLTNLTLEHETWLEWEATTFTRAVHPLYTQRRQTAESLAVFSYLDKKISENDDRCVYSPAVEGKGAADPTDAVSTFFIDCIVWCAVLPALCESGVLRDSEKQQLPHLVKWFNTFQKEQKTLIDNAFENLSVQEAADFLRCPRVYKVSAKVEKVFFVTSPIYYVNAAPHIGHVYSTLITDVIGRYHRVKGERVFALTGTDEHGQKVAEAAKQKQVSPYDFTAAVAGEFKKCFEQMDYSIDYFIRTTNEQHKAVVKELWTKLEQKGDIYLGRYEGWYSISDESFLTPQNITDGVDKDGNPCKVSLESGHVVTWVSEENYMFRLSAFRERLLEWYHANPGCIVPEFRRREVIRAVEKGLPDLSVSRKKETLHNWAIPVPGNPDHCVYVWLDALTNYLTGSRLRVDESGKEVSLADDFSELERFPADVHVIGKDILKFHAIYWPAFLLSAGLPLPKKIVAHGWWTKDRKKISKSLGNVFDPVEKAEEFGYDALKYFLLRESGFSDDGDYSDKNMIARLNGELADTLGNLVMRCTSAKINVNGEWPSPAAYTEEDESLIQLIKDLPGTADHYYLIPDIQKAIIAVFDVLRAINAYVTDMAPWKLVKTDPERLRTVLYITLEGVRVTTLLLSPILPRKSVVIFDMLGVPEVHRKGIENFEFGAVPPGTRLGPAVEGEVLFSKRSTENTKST

Row | pIC50 | Structure (SMILES)
1 | < 3.93 | O=C(Nc1ccccc1)Nc1ccc(S(=O)(=O)N2CCCCC2)cc1 [SMR000070822]
2 | < 3.93 | O=C(Cc1ccc(Br)cc1)NNC(=O)Nc1ccc(Cl)cc1 [SMR000227759]
3 | < 3.93 | O=C(CSc1nc2ccc(Cl)cc2[nH]1)c1c[nH]c2ccccc12 [SMR000261830]
4 | < 3.93 | COc1ccc(CC(=O)OCC(=O)Nc2ccc(Br)cc2)cc1 [SMR000353950]
5 | < 3.93 | CC(N=Nc1nc2ccccc2[nH]1)c1ccc2c(c1)OCO2 (stereo not drawn) [SMR000354227]
6 | < 3.93 | COc1cc(OC)c(OC)cc1CN=Nc1nc2ccccc2[nH]1 [SMR000440059]
7 | < 3.93 | Cc1csc(CNc2ncnc3ccc(-c4ccccc4Cl)cc23)c1 [SMR001318042]

The next lines start with the compound.

Row | Structure (SMILES) | pIC50
8 | Cc1ccc(C(=O)NN2C(=O)/C(=C/c3nc4ccccc4[nH]3)SC2=S)cc1 | < 3.93
9 | O=C(NCc1cc(Br)cc(Br)c1OC(=O)c1ccccc1[N+](=O)[O-])c1ccccc1 | < 3.93
10 | COC(=O)C(C=Nc1ccccc1)NC(=O)c1ccc(Cl)cc1Cl (stereo not drawn) | 5.57
11 | N#CC(N=Nc1cc(Cl)cc(Cl)c1)c1nnc2n1CCCCC2 (stereo not drawn) | 4.78
12 | Cc1cc2c(c(=O)n1CC1CCCO1)C(c1ccc3c(c1)OCO3)C(C#N)C(=N)O2 (stereo not drawn) | < 3.93
13 | COC(=O)Cn1c(CC(=O)Nc2ccc(Cl)cc2)c(O)n(-c2ccc(Cl)cc2)c1=S | 4.71
14 | c1ccc2[nH]c(N=NCc3c[nH]c4ccccc34)nc2c1 [1-(1H-benzimidazol-2-yl)-2-[(Z)-indol-3-ylidenemethyl]diazane] | 4.49
15 | Oc1cc(N(CCc2ccccc2)C(=S)Nc2ccccc2)c(O)n1-c1ccc(Br)cc1 [1-[1-(4-bromophenyl)-2,5-bis(oxidanylidene)pyrrolidin-3-yl]-3-phenyl-1-(2-phenylethyl)thiourea] | 6.34
16 | N#Cc1ccccc1CSc1ccc(-c2nc3ccccc3[nH]2)cn1 [2-[5-(1H-Benzoimidazol-2-yl)-pyridin-2-ylsulfanylmethyl]-benzonitrile] | < 3.93
17 | Cc1cc(Br)cc(Br)c1OCC(=O)NNC(=O)Nc1ccccc1 [2-[(2,4-dibromo-6-methylphenoxy)acetyl]-N-phenylhydrazinecarboxamide] | < 5.36
18 | N#Cc1ccccc1CSc1nc2cc(Br)c[nH]c-2n1 [2-[(6-bromo-1H-imidazo[4,5-b]pyridin-2-yl)sulfanylmethyl]benzonitrile] | < 3.93
19 | C=C(c1ccc(O)cc1)c1sc(=S)n(CCC(=O)O)c1O [3-[(5Z)-5-[1-(4-hydroxyphenyl)ethylidene]-4-oxidanylidene-2-sulfanylidene-1,3-thiazolidin-3-yl]propanoic acid] | 5.02
20 | COc1ccc(NC(=O)COC(=O)CCCOc2ccc(Cl)cc2Cl)cc1 [4-(2,4-dichlorophenoxy)butanoic acid [2-(4-methoxyanilino)-2-oxoethyl] ester] | < 3.93
21 | O=C(Nc1cccnc1)c1ccc(COc2cc(Cl)ccc2Cl)o1 [5-[(2,5-dichlorophenoxy)methyl]-N-(3-pyridinyl)-2-furancarboxamide] | < 3.93
22 | Fc1ccccc1CSc1nc2ncc(Br)cc2[nH]1 [6-bromanyl-2-[(2-fluorophenyl)methylsulfanyl]-1H-imidazo[4,5-b]pyridine] | < 3.93
23 | COc1ccccc1NS(=O)(=O)c1cc(NC(=O)Nc2ccccc2)ccc1N1CCCCC1 [MLS000401499] | < 3.93
24 | O=C(CSc1ccc(-c2nc3ccccc3[nH]2)cn1)Nc1ccc(S(=O)(=O)N2CCCC2)cc1 [MLS000548715] | < 3.93
25 | Cc1cc(Cl)ccc1OCCCC(=O)NNC(=O)c1ccccc1O [N'-[4-(4-chloro-2-methylphenoxy)butanoyl]-2-hydroxybenzohydrazide] | < 3.93
26 | Cc1[nH]c2ccccc2c1CN=Nc1nc2ccccc2[nH]1 [N-(1H-Benzoimidazol-2-yl)-N'-[1-(2-methyl-1H-indol-3-yl)-meth-(E)-ylidene]-hydrazine] | 4.43
27 | Cc1ccc2nc(-c3ccc(SCC(=O)Nc4ccc5c(c4)OCCO5)nc3)[nH]c2c1 [N-(2,3-dihydro-1,4-benzodioxin-6-yl)-2-[[5-(6-methyl-1H-benzimidazol-2-yl)-2-pyridinyl]thio]acetamide] | < 3.93
28 | COc1cccc(NC(=O)CSC(N)=O)c1 [S-[2-(3-methoxyanilino)-2-oxoethyl] thiocarbamate] | 5.80
29 | Oc1cc(SCc2nc3ccccc3[nH]2)c(O)n1-c1cccc(Cl)c1 [SMR000143477] | 5.59
30 | COc1cc(CN=Nc2nc3ccccc3[nH]2)ccc1O [SMR000212232] | 3.99
31 | Clc1cccc(N=NC(Cc2nc3ccccc3[nH]2)c2ccccc2)c1 (stereo not drawn) [SMR000263830] | 5.51
32 | COc1ccc(NC(=O)Nc2cccc3cccnc23)cc1 [US9034574, XXIV] | 5.55
33 | O=C(OCC(=O)c1c[nH]c2ccccc12)c1ccc(OC(F)F)cc1 [[2-(1H-indol-3-yl)-2-oxidanylidene-ethyl] 4-[bis(fluoranyl)methoxy]benzoate] | < 3.93
